Experimental data published in US8569264B2, “Antibacterial 4,5-substituted aminoglycoside analogs having multiple substituents” (ISIS Pharmaceuticals, Inc., priority 2005, dated 2013).
pIC50, pKd: −log10 of the molar value. Converted amounts (≈) assume the structure as drawn. Read-outs that look alike come from different tables or passages of the source.

Assays:
[1] = biological target: 18S ribosomal subunit RNA target; experiment: Mass spectrometry based binding assay (FTICR), 18S
Procedure, shortened: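 Ligands at varying concentrations were mixed with 2.5 or 5 μM RNA in 100 mM ammonium acetate with 33% isopropyl alcohol, then analysed by negative-mode ESI-FTICR. Complex/free RNA ion ratios plotted against ligand concentration were fitted to a second- or higher-order binding polynomial to give KD.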

[2] = tested on: S. Aureus; experiment: MIC, S. Aureus; type: cell-based
Procedure, shortened: (§1)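 Broth microdilution in duplicate, 150 μL: overnight-culture bacteria were added to compound in 4% DMSO in water. Final inoculum was about 10^5–10^6 CFU/well.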

[3] = tested on: E. coli ATCC 25922; experiment: MIC, E. coli ATCC 25922; type: cell-based; conditions: for MIC: Escherichia coli
Method: (§2) The MIC assays are carried out in 150 μL volume in duplicate in 96-well clear flat-bottom plates. The bacterial suspension from an overnight culture growth in appropriate medium is added to a solution of test compound in 4% DMSO in water. Final bacterial inoculum is approximately 10^5-10^6 CFU/well. […] Both ampicillin and tetracycline are used as antibiotic-positive controls in each screening assay for S. pyogenes, E. coli imp-, E. coli, S. aureus, E. faecalis, K. pneumoniae and P. vulgaris. Ciprofloxacin is used as an antibiotic positive control in each screening assay for P. aeruginosa.
(§3) The following compounds were prepared using methods illustrated in the previous examples. The compounds were also examined in standard bacterial assays against E. Coli, S. Aureus, P. aurginosa, K. pneumoniae, P. vulgaris, and A. baumannii to determine activities. Each of the bacterial cultures that are available from ATCC (www.atcc.org) is identified by its ATCC number. A. baumannii is gentamicin sensitive Acinetobacter baumannii #2 from Walter Reed.

[4] = tested on: E. Coli; experiment: MIC, E. Coli; type: cell-based
Procedure, shortened: as §1

[5] = tested on: gentamicin sensitive Acinetobacter baumannii #2 from Walter Reed; experiment: MIC, A. baumannii WReed 2; type: cell-based
Method: as §2, §3

[6] = tested on: S. aureus ATCC 13709; experiment: MIC, S. aureus ATCC 13709; type: cell-based
Method: as §2, §3

[7] = tested on: P. aurginosa ATCC 25416; experiment: MIC, P. aurginosa ATCC 25416; type: cell-based
Method: as §2, §3

[8] = tested on: K. pneumoniae ATCC 10031; experiment: MIC, K. pneumoniae ATCC 10031; type: cell-based; conditions: for MIC: Klebsiella pneumoniae
Method: as §2, §3

[9] = biological target: 16S ribosomal subunit RNA target; experiment: Mass spectrometry based binding assay (FTICR), 16S
Procedure, shortened: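 Binding to the 16S ribosomal subunit RNA target was measured by FTICR mass spectrometry. Ligands or ligand mixtures were prepared at several concentrations in 10 μL of aqueous 100 mM ammonium acetate buffer with 33% isopropyl alcohol. Samples were infused at 1 μL/min into a negative-mode electrospray source, and ions were held 1 sec in an RF-only hexapole. Complex/free RNA ratios versus ligand concentration were fitted to a binding polynomial to obtain KD.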

[10] = tested on: P. aurginosa ATCC 29248; experiment: MIC, P. aurginosa ATCC 29248; type: cell-based
Method: as §2, §3

[11] = tested on: Staphylococcus aureus (Smith Strain ATCC 13709); experiment: Staphylococcus aureus mouse protection assay; type: in vivo, mice; conditions: Staph Conc. 10^6, 10% Mucin, the 13th table
[12] = tested on: E. coli S30 bacterial extract (pBestLuc firefly luciferase reporter); experiment: Coupled bacterial transcription/translation assay; type: biochemical; conditions: read-out: Trans/Trans IC50
Procedure, shortened: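 Coupled transcription/translation of firefly luciferase from 1 μg pBestLuc (tac promoter) in E. coli S30 extract, with or without test compound. Reaction 35 min at 37° C., then functional luciferase detected by luminescence.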

[13] = tested on: P. vulgaris ATCC 8427; experiment: MIC, P. vulgaris ATCC 8427; type: cell-based
Method: as §2, §3

[14] = tested on: A. baumannii ATCC 19606; experiment: MIC, A. baumannii ATCC 19606; type: cell-based; conditions: Acinetobacter baumannii, ATCC19606; Example 112
Method: (§4) The MIC assays are carried out in 150 μL volume in duplicate in 96-well clear flat-bottom plates. The bacterial suspension from an overnight culture growth in appropriate medium is added to a solution of test compound in 4% DMSO in water. Final bacterial inoculum is approximately 10^5-10^6 CFU/well. The percent growth of the bacteria in test wells relative to that observed for a well containing no compound is determined by measuring absorbance at 595 nm (A595) after 24 h. The MIC is determined as a range of single compound where the complete inhibition of growth is observed at the higher concentration and cells are viable at the lower concentrations. Both ampicillin and tetracycline are used as antibiotic-positive controls in each screening assay for S. pyogenes, E. coli imp-, E. coli, S. aureus, E. faecalis, K. pneumoniae and P. vulgaris. Ciprofloxacin is used as an antibiotic positive control in each screening assay for P. aeruginosa.
(§5) The following compound was prepared using methods illustrated in the previous examples. The compound was also examined in standard bacterial assays against E. Coli, S. Aureus, P. aurginosa, K. pneumoniae and A. baumannii to determine activities. Each of the bacterial cultures that are available from ATCC (www.atcc.org) is identified by its ATCC number.

[15] = tested on: S. aureus ATCC 29213; experiment: MIC, S. aureus ATCC 29213; type: cell-based; conditions: Staphylococcus aureus, ATCC29213; Example 112
Method: as §4, §5

[16] = tested on: P. aurginosa ATCC 27853; experiment: MIC, P. aurginosa ATCC 27853; type: cell-based; conditions: Example 112
Method: as §4, §5

NCC1OC(OC2C(CO)OC(OC3C(O)C(N)CC(N)C3OC3OC(CNCCc4ccccc4)C(O)C(O)C3N)C2O)C(N)C(O)C1O (centres unmarked) [Compound 15j]
pKd ([1]; Example 108): 5.66 | MIC S. Aureus ([2]; Example 108): 0.3 to 0.6 µM | MIC E. coli ATCC 25922 ([3]; Example 110): 1.3 to 2.5 µM | MIC E. coli ATCC 25922 ([3]; Example 111): 1.3 to 2.5 µM | MIC E. Coli. ([4]; Example 108): 1.3 to 2.5 µM | MIC A. baumannii WReed 2 ([5]; Example 110): 1.3 to 2.5 µM | MIC A. baumannii WReed 2 ([5]; Example 111): 20 to 40 µM | MIC S. aureus ATCC 13709 ([6]; Example 110): 10 to 20 µM | MIC S. aureus ATCC 13709 ([6]; Example 111): 0.3 to 0.6 µM | MIC P. aurginosa ATCC 25416 ([7]; Example 110): >40 µM | MIC P. aurginosa ATCC 25416 ([7]; Example 111): >40 µM | MIC K. pneumoniae ATCC 10031 ([8]; Example 110): <0.6 µM | MIC K. pneumoniae ATCC 10031 ([8]; Example 111): 0.6 to 1.3 µM | pKd ([9]; Example 108): 6.30 | MIC P. aurginosa ATCC 29248 ([10]; Example 110): >40 µM | MIC P. aurginosa ATCC 29248 ([10]; Example 111): >40 µM | # Dead mice/Total mice in group ([11]; 0.5 mg/kg subcutaneously): 7/10 | # Dead mice/Total mice in group ([11]; 1 mg/kg subcutaneously): 0/10 | # Dead mice/Total mice in group ([11]; 2 mg/kg subcutaneously): 0/10 | # Dead mice/Total mice in group ([11]; 4.5 mg/kg subcutaneously): 0/10 | # Dead mice/Total mice in group ([11]; 9 mg/kg subcutaneously): 0/10 | # Dead mice/Total mice in group ([11]; 18 mg/kg subcutaneously): 0/10 | # Dead mice/Total mice in group ([11]; 37 mg/kg subcutaneously): 0/10 | # Dead mice/Total mice in group ([11]; 75 mg/kg subcutaneously one and 3 hour after infection, intraperitoneal): 0/10 | pIC50 ([12]; Example 108): 6.70 | MIC P. vulgaris ATCC 8427 ([13]; Example 110): 1.3 to 2.5 µM | MIC P. vulgaris ATCC 8427 ([13]; Example 111): >40 µM

NCC[C@H](O)C(=O)N[C@@H]1C[C@H](N)[C@@H](O[C@H]2O[C@H](CN)CC[C@H]2N)[C@H](O[C@@H]2O[C@H](CO)[C@@H](O[C@H]3O[C@@H](CN)[C@@H](O)[C@H](O)[C@H]3N)[C@H]2OCCNCCc2ccccc2)[C@H]1O [Compound 87, N-1-haba-2″-O-phenylethylaminoethyl-3′,4′-dideoxy neomycin]
MIC ([3]; ATCC25922, Example 112): < 16 µM | MIC [14]: < 16 µM | MIC [15]: < 16 µM | MIC [16]: < 16 µM | MIC ([8]; ATCC10031, Example 112): < 16 µM

NC[C@@H]1O[C@H](O[C@H]2[C@@H](O)[C@H](O[C@@H]3[C@@H](O)[C@H](N)C[C@H](N)[C@H]3O[C@H]3O[C@H](CO)[C@@H](O)[C@H](O)[C@H]3N)O[C@@H]2CO)[C@H](N)[C@@H](O)[C@@H]1O [paromomycin, reference compound]
pKd ([1]; Example 106): 5.32 | MIC ([2]; Staphylococcus aureus, Example 106): 3 to 5 µM (≈ 1.85 to 3.08 µg/mL) | MIC ([3]; ATCC25922, Example 111): 5 to 10 µM (≈ 3.08 to 6.16 µg/mL) | MIC ([4]; Escherichia coli, Example 106): 20 to 40 µM (≈ 12.3 to 24.6 µg/mL) | MIC ([5]; Acinetobacter baumannii, Example 111): 2.5 to 5 µM (≈ 1.54 to 3.08 µg/mL) | MIC ([6]; Staphylococcus aureus, ATCC13709, Example 111): 10 to 20 µM (≈ 6.16 to 12.3 µg/mL) | MIC ([7]; Example 111): > 40 µM | MIC ([8]; ATCC10031, Example 111): 0.6 to 1.3 µM (≈ 0.369 to 0.8 µg/mL) | pKd ([9]; Example 106): 6.22 | MIC ([10]; Example 111): > 40 µM | # Dead mice/Total mice in group ([11]; 0.5 mg/kg subcutaneously): 10/10 | # Dead mice/Total mice in group ([11]; 1 mg/kg subcutaneously): 10/10 | # Dead mice/Total mice in group ([11]; 2 mg/kg subcutaneously): 9/10 | pIC50 ([12]; Example 106): 7.00 | MIC ([13]; Proteus vulgaris, ATCC8427, Example 111): > 40 µM
